According to a melting point compilation (Tetko et al.; mined from patent text by program, amines drawn as free bases though some values may be those of a salt):

Row | SMILES | melting point [°C]
1 | CN(C)Cc1ccc(CSCCNC(=C[N+](=O)[O-])NCCCCCCCCCCCCNC(=C[N+](=O)[O-])NCCSCc2ccc(CN(C)C)o2)o1 | 74 to 76
2 | COC(=O)c1ccccc1S(=O)(=O)N(c1ccn(-c2nc(C)cc(C)n2)n1)S(=O)(=O)c1ccccc1C(=O)OC | 177
3 | CC(=O)C(C)Oc1cc(-n2c(=O)cc(C(F)(F)F)n(C)c2=O)c(F)cc1Br (centres undefined) | 119
4 | CC(C)C[C@@H]1OC(O)[C@H](Cc2ccccc2)NC1=O (some centres undefined) | 84 to 84.5
5 | CCc1nc(/C=C/c2cn(-c3ccccc3)nc2OCc2ccc(OCc3nc(-c4cccc(NS(C)(=O)=O)c4)oc3C)c(OC)c2)cs1 | 113 to 115
6 | CCCc1c(C(O)C(C)C)c2ccc(C#N)cc2n1Cc1ccccc1Cl (centres undefined) | 126 to 127
7 | CC(C(=O)O)c1ccc2c(c1)C(=O)Cc1cccnc1S2 (centres undefined) | 141 to 143
8 | CCC(=O)Nc1cccc(-c2ccnc3c(C(=O)c4ccco4)cnn23)c1 | 185 to 186
9 | N#Cc1ccc(Nn2cnnc2)cc1 | 200 to 204
10 | N#Cc1ccccc1N1CCN(CNC(=O)c2cccc(Cl)c2)CC1 | 143 to 146
11 | N#Cc1ccc(NC2CCN(Cc3cc(F)cc(F)c3)CC2)nn1 | 188
12 | Cc1cccc2c1CC(n1ccnc1C(N)=O)C2=O (centres undefined) | 160
13 | COC(=O)COc1ccc(NC(=O)/C=C/c2ccc(C#N)cc2)cc1 | 197
14 | O=C(Nc1ccc(-n2nc(C(F)(F)F)cc2C(F)(F)F)cc1)c1cccc(Cl)c1F | 113 to 116
15 | O=C(NCCCn1ccnc1)Nc1ccc(Cl)cc1 | 123 to 125
16 | CCCc1ccc(-n2nc(Cl)cc2-c2ccc(S(C)(=O)=O)cc2)cc1Cl | 119 to 122
17 | CN(C)S(=O)(=O)c1cc(C(=O)CBr)ccc1Cl | 98
18 | Cc1ccccc1-c1nc(-c2ccc(Cl)cc2)n[nH]1 | 150 to 151
19 | COC(=O)[C@H](Cc1ccc(O)c(C2SCCS2)c1)NC(C)=O | 97 to 99
20 | O=C(N[C@H]1CC[C@H](CCN2CCN(c3nccc4c3OCC4)CC2)CC1)c1ccc(N2CCOCC2)nc1 | 231
21 | Cc1ccc(C=C2CCc3cc(OCCc4c[nH]cn4)ccc3C2=O)s1 | 69 to 70
22 | O=C(NC(=O)c1c(F)cccc1F)Nc1cc(Cl)cc(C(F)(F)F)c1F | 187 to 189
23 | BrCCOc1ccc2[nH]c3ccccc3c2c1 | 135 to 136

Row | SMILES | melting point [°C]
24 | O=C(NC1CCCCC1=Cc1ccccc1)C(F)(F)F (centres undefined) | 109 to 110
25 | CC(C)(C)c1cc(-c2ccc(F)cc2F)cc(C(=O)Nc2ccc(S(=O)(=O)C(F)(F)F)cc2Cl)c1O | 114 to 115
26 | O=C(O)c1ccc2c(c1)Sc1ccc([N+](=O)[O-])cc1C=C2 | 304 to 306
27 | CCCCCCCCCCCCCCCCC(=O)Nc1ccn(C2OC(CO)C(O)C2O)c(=O)n1 (centres undefined) | 144 to 147
28 | O=Cc1cc(O)c2c(c1)C(=O)c1cccc(O)c1C2=O | 198 to 200
29 | CC(C)Nc1nn(C)c(=O)c2cn(Cc3cccc4ccccc34)cc12 | 221 to 222
30 | Clc1ncc(CN2CC3(COc4cc5c(cc43)OCO5)c3ccccc32)s1 (centres undefined) | 195 to 198
31 | COC(=O)c1ccc(OCC(N)=O)c([N+](=O)[O-])c1 | 185 to 187
32 | O=C(c1ccc(F)cc1)N1CCN(CC(O)Cn2c3ccccc3c3ccccc32)CC1 (centres undefined) | 70 to 80
33 | OCc1ccc(I)nc1 | 102
34 | CCCCC1(N(C)C)CCC(c2[nH]c3ccc(F)cc3c2C)(c2[nH]c3ccccc3c2C(COC(N)=O)c2ccccc2)CC1 (centres undefined) | 101 to 105
35 | Cc1cc2cc(C#N)c(Cl)nc2cc1C | 189 to 190
36 | CCOC(=O)C1=C(N)NC(N)=C(C(=O)OCC)C1c1c(OC)ncnc1OC | 219
37 | OCc1ccc(C2=NOC(c3cc(Cl)cc(Cl)c3)(C(F)(F)F)C2)cc1Cl (centres undefined) | 32 to 35
38 | O=C(Nc1cccc2c(N3CCN(Cc4ccccc4)C3=O)ccnc12)c1c(Cl)cccc1Cl | 178 to 191
39 | CC(C)CN1CCCCC1C(=O)Nc1cc(C(F)(F)F)ccc1-c1cc(Oc2cccc3[nH]c(=O)c(N)nc23)ncn1 (centres undefined) | > 250
40 | O=C(O)CS(=O)c1ccc2c(-c3ccccc3F)noc2c1 (centres undefined) | 165 to 166
41 | CC(C)(OCc1nn(Cc2ccccc2)c2ccccc12)C(=O)NO | 115 to 116
42 | CCCCCCCCCCCCCCCCCCCCOC(=O)Nc1ccc(NC(=O)NS(=O)(=O)c2ccc3ccccc3c2)cc1 | 181
43 | CCCCCCCCCCCCOc1cccc2c(OCC(O)CO)cccc12 (centres undefined) | 143 to 144
44 | Nc1ccc(Cl)cc1NCC1CCCCC1 | 62
45 | COc1ccc(S(=O)(=O)Nc2ccccc2Nc2cccc(O)c2)cc1 | 165 to 166
46 | COC(=O)C1CC(=O)n2c3c(c4cc(F)ccc42)CCNC31 (centres undefined) | 172

Row | SMILES | melting point [°C]
47 | CNC(=O)[C@]1(n2cnc3c(NCc4cccc(I)c4)nc(Cl)nc32)SC[C@H](O)[C@@H]1O | 205 to 207
48 | COC(=O)/C=C/n1cnc2ccc(C(C)C)cc2c1=O | 145
49 | O=C1COc2ccc(-c3cccnc3-c3ccccc3)cc2N1 | 176 to 178
50 | CCN(C(=O)OC(C)(C)C)n1c(C)nc(N2CCc3ccccc3CC2)c(C#N)c1=O | 86 to 88
51 | CCCN(C1=C(O)CC(CCc2ccc(O)cc2)(C2CCCC2)OC1=O)c1ccccc1 (centres undefined) | 95
52 | CCOC(=O)N1Cc2ccccc2C(Oc2ccc(Cl)cc2)C1 (centres undefined) | 78.5 to 79.5
53 | CC(=O)c1cc(S(=O)(=O)c2ccccc2)ccc1OCc1ccccc1 | 80.5 to 82.4
54 | N#Cc1sc2cc(N)ccc2c1Cl | 158 to 160
55 | CSc1ccc2ccc(N3C(=O)c4ccccc4C3=O)nc2n1 | 235
56 | Cc1nc(N2C(=O)N(Cc3ccc(C(F)(F)F)cc3)CC2O)sc1C(=O)NCc1cccnc1 (centres undefined) | 171 to 172
57 | CCN([C@H]1CC[C@H](c2ccc3[nH]c(=O)oc3c2)CC1)[C@H](C)CCc1ccccc1 | 139 to 158
58 | N#CC1(SCc2ccccc2)C2CC3CC(C2)CC1C3 (centres undefined) | 73 to 75
59 | CCO[C@@H]1[C@@H](OC)[C@H](C)O[C@@H](OC(=O)N(C(C)=O)c2ccc(-c3ncn(-c4ccc(OC(F)(F)C(F)(F)F)cc4)n3)cc2)[C@@H]1OC | 70 to 72
60 | COc1ccc(OC)c2nc(Cl)c(CCCl)cc12 | 108 to 110
61 | Cc1ccc(OCC=C(Cl)Cl)c(Cl)c1O | 70
62 | CN(C)Cc1ccc(CSCCNC(=C[N+](=O)[O-])NCCCN(C)CCN(Cc2ccc(F)cc2)c2ccccn2)o1 | 63
63 | CS(=O)(=O)c1csc(NC(=O)c2ccccc2O)n1 | 231 to 235
64 | Cc1cccc(CSc2nc3cnccc3[nH]2)c1 | 166 to 168
65 | CCOC(=O)C1=C(C)NC(=S)N(C(=O)OCC)C1c1cccc(OC)c1 (centres undefined) | 107 to 109
66 | O=C1N(Cc2ccc(Cl)o2)c2ccccc2C12COc1cc3c(cc12)OCO3 (centres undefined) | 148 to 150
67 | CCOC(=O)C1CCn2c(cc3ccccc32)C1O (centres undefined) | 116 to 120
68 | CCC(CC)Oc1nc(C)nc(Cc2c(C)cc(C)cc2C)c1C | 82 to 84
69 | Cc1cc(-c2cccc(Cl)c2)nn2cnnc12 | 173 to 176
